# Experiments:
# [1] = Flowability of the bulk material; assay type: physicochemical; conditions: 500 μm sieved bulk non-granulated material
# Text: (§1) The increase in density of the granulated material relative to the non-granulated material results in improved flow characteristics which facilitate easier handling during manufacturing processes such as formulation. Bulk and granulated densities can be measured with a measuring cylinder. The values for the bulk (ρb) and tap (ρt) densities can be used to calculate index of compressibility (% Compressibility), which is indicative of the flow properties of the material. The % Compressibility can be calculated by the following formula: % Compressibility=[(ρt−−ρb)/ρt-]×100%. See, e.g., The theory and practice of industrial pharmacy, by L. Lachman, H. Lieberman, and J. Kanig, in Varghese Publishing House, 3rd Indian Edition, (Hind Rajasthan Bldng, Dadar Bombay 400 014), 1987, p. 184. Also, flowability of the material can be determined by Flodex analysis. The Flodex Test Apparatus is ideal for determining the intrinsic flowability of powders (which is recommended for quality control of powders). The Flodex instrument includes a complete set of index flow disks with opening of different diameter. A tested powder is allowed to flow through the opening. […] See, e.g., Composite Method to Quantify Powder Flow as a Screening Method in Early Tablet or Capsule Formulation Development, by Michael K. Taylor, Jeri Ginsburg, Anthony Hickey, and Ferdous Gheyas, in AAPS PharmSciTech, 2000, 1(3): article 18.
# [2] = Bulk, granule and pellet density measurement; assay type: physicochemical
# Text: as §1
# [3] = Regional absorption studies; conditions: in vivo
compound,measurement,setting,value
CCO[C@@H]1OC(=O)C[C@@H]1NC(=O)[C@@H]1CCCN1C(=O)[C@@H](NC(=O)c1ccc(N)c(Cl)c1)C(C)(C)C [compound of Formula (I)],flowability,[1],very poor flowability
same,density of the bulk material,[2]; 500 μm sieved bulk non-granulated material,around 0.24 g/cm^3
same,density of the natural form,[2]; natural (non-granulated) form,about 0.2 g/cm^3
same,regional absorption,[3],colonic absorption
